# Measurements from patent publication US5925648A, “Tricyclic N-cyanoimines useful as inhibitors of a farnesyl-protein transferase” (Schering Corporation, priority 1997, dated 1999).
# Test system: Ras processing
# Assay: COS IC50, cell-based assay: COS cells activity inhibition of Ras processing
# Method: 2. Cell-based assay. COS IC50 values refer to the COS cells activity inhibition of Ras processing, are determined by the methods disclosed in […] or WO 95/10516.
row,Compound,IC50
1,N#CN=C(Nc1ccc2c(c1)COCO2)N1CCC(=C2c3ccc(Cl)cc3CCc3cccnc32)CC1 [Example 10],250 nM
2,N#CN=C(Nc1ccc2c(c1)COCO2)N1CCC(=C2c3ccc(Cl)cc3CCc3cc(Br)cnc32)CC1 [Example 11],250 nM
3,N#CN=C(Nc1ccccc1)N1CCC(=C2c3ccc(Cl)cc3CCc3cccnc32)CC1 [Example 14],2500 nM
4,CCOC(=O)N1CCC(NC(=NC#N)N2CCC(=C3c4ccc(Cl)cc4CCc4cc(Br)cnc43)CC2)CC1 [Example 15],560 nM
5,CCOC(=NC#N)N1CCC(=C2c3ccc(Cl)cc3CCc3cc(Br)cnc32)CC1 [Example 16],2300 nM
6,CNC(=NC#N)N1CCC(=C2c3ccc(Cl)cc3CCc3cc(Br)cnc32)CC1 [Example 17],5000 nM
7,N#CN=C(Nc1ccc2c(c1)OCO2)N1CCC(=C2c3ccc(Cl)cc3CCc3cc(Br)cnc32)CC1 [Example 18],800 nM
8,N#CN=C(NC1CCCCC1)N1CCC(=C2c3ccc(Cl)cc3CCc3cc(Br)cnc32)CC1 [Example 19],480 nM
9,CCCCNC(=NC#N)N1CCC(=C2c3ccc(Cl)cc3CCc3cc(Br)cnc32)CC1 [Example 20],1600 nM
10,N#CN=C(Nc1cccnc1)N1CCC(=C2c3ccc(Cl)cc3CCc3cc(Br)cnc32)CC1 [Example 23],2400 nM
11,N#CN=C(Nc1ccc2c(c1)COCO2)N1CCN(C2c3ccc(Cl)cc3CCc3cc(Br)cnc32)CC1 (stereo not drawn) [Example 24],< 250 nM
12,COc1ccc(NC(=NC#N)N2CCC(=C3c4ccc(Cl)cc4CCc4cc(Br)cnc43)CC2)cc1 [Example 25],270 nM
13,N#CN=C(NCc1ccccn1)N1CCC(=C2c3ccc(Cl)cc3CCc3cc(Br)cnc32)CC1 [Example 26],750 nM
14,N#CN=C(NCCO)N1CCC(=C2c3ccc(Cl)cc3CCc3cc(Br)cnc32)CC1 [Example 27],2600 nM
15,N#CN=C(Nc1ccc(F)cc1)N1CCC(=C2c3ccc(Cl)cc3CCc3cc(Br)cnc32)CC1 [Example 29],570 nM
16,N#CN=C(NCCc1ccncc1)N1CCC(=C2c3ccc(Cl)cc3CCc3cc(Br)cnc32)CC1 [Example 36],280 nM
17,N#CN=C(Nc1ccc(C#N)cc1)N1CCC(=C2c3ccc(Cl)cc3CCc3cc(Br)cnc32)CC1 [Example 37],280 nM
18,N#CN=C(NCc1cccnc1)N1CCC(=C2c3ccc(Cl)cc3CCc3cc(Br)cnc32)CC1 [Example 41],700 nM
19,N#CN=C(NCCCn1ccnc1)N1CCC(=C2c3ccc(Cl)cc3CCc3cc(Br)cnc32)CC1 [Example 42],4000 nM
20,N#CN=C(NCc1ccc[n+]([O-])c1)N1CCC(=C2c3ccc(Cl)cc3CCc3cc(Br)cnc32)CC1 [Example 60],> 1000 nM
21,N#CN=C(NCc1cc[n+]([O-])cc1)N1CCC(=C2c3ccc(Cl)cc3CCc3cc(Br)cnc32)CC1 [Example 70],16000 nM

# Biological target: T1, farnesyl protein transferase (Rattus norvegicus, UniProt Q02293+Q04631)
# T1 construct: partially purified rat brain farnesyl protein transferase (FPT); from tissue; host or cells: rat brain
# Assay: FPT IC50 (inhibition of farnesyl protein transferase, in vitro enzyme assay; Ras-CVLS farnesylation by partially purified rat brain FPT)
# Type: biochemical
# Method: 1. In vitro enzyme assays: FPT IC50 (inhibition of farnesyl protein transferase, in vitro enzyme assay) are determined by the methods disclosed in […] or WO 95/10516.
row,Compound,IC50
1,N#CN=C(Nc1ccc2c(c1)COCO2)N1CCC(=C2c3ccc(Cl)cc3CCc3cccnc32)CC1 [Example 10],18 nM
2,CSC(=NC#N)N1CCC(=C2c3ccc(Cl)cc3CCc3cc(Br)cnc32)CC1 [Example 12],< 410 nM
3,N#CN=C(N1CCOCC1)N1CCC(=C2c3ccc(Cl)cc3CCc3cc(Br)cnc32)CC1 [Example 13],720 nM
4,CCOC(=NC#N)N1CCC(=C2c3ccc(Cl)cc3CCc3cc(Br)cnc32)CC1 [Example 16],54 nM
5,N#CN=C(NC1CCN(Cc2ccccc2)CC1)N1CCC(=C2c3ccc(Cl)cc3CCc3cc(Br)cnc32)CC1 [Example 22],170 nM
6,N#CN=C(Nc1cccnc1)N1CCC(=C2c3ccc(Cl)cc3CCc3cc(Br)cnc32)CC1 [Example 23],140 nM
7,N#CN=C(Nc1ccc2c(c1)COCO2)N1CCN(C2c3ccc(Cl)cc3CCc3cc(Br)cnc32)CC1 (stereo not drawn) [Example 24],10 nM
8,N#CN=C(NCCO)N1CCC(=C2c3ccc(Cl)cc3CCc3cc(Br)cnc32)CC1 [Example 27],17 nM
9,CN1CCN(NC(=NC#N)N2CCC(=C3c4ccc(Cl)cc4CCc4cc(Br)cnc43)CC2)CC1 [Example 31],260 nM
10,N#CN=C(N1CCCCC1)N1CCC(=C2c3ccc(Cl)cc3CCc3cc(Br)cnc32)CC1 [Example 32],270 nM
11,N#CN=C(N)N1CCC(=C2c3ccc(Cl)cc3CCc3cc(Br)cnc32)CC1 [Example 33],2800 nM
12,N#CN=C(Nc1ccc2c(c1)COCO2)N1CCC(C2c3ccc(Cl)cc3C=Cc3cc(Br)cnc32)CC1 (stereo not drawn) [Example 34],9600 nM
13,N#CN=C(NCc1ccncc1)N1CCN(C2c3ccc(Cl)cc3CCc3cc(Br)cnc32)CC1 (stereo not drawn) [Example 43],11 nM
14,CN(C)CCCNC(=NC#N)N1CCC(=C2c3ccc(Cl)cc3CCc3cc(Br)cnc32)CC1 [Example 45],74 nM
15,N#CN=C(Nc1ccc2ncccc2c1)N1CCC(=C2c3ccc(Cl)cc3CCc3cc(Br)cnc32)CC1 [Example 46],150 nM
16,N#CN=C(Nc1ccc2c(c1)COCO2)N1CCC(=C2c3ccc(Cl)c(Br)c3CCc3cccnc32)CC1 [Example 47],14 nM
17,N#C/N=C(\Nc1ccc([N+](=O)[O-])cc1)N1CCC(=C2c3ccc(Cl)cc3CCc3cc(Br)cnc32)CC1 [Example 48],64 nM
18,N#CN=C(Nc1cc[n+]([O-])cc1)N1CCC(=C2c3ccc(Cl)cc3CCc3cc(Br)cnc32)CC1 [Example 49],13 nM
19,Cn1c(NC(=NC#N)N2CCC(=C3c4ccc(Cl)cc4CCc4cc(Br)cnc43)CC2)cc(=O)n(C)c1=O [Example 50],300 nM
20,N#CN=C(NCc1ccco1)N1CCC(=C2c3ccc(Cl)cc3CCc3cc(Br)cnc32)CC1 [Example 51],73 nM
21,N#CN/C(=N/Cc1ccc2c(c1)OCO2)N1CCC(=C2c3ccc(Cl)cc3CCc3cc(Br)cnc32)CC1 [Example 52],24 nM

row,Compound,IC50
1,N#CN=C(NCc1ccc(N)cc1)N1CCC(=C2c3ccc(Cl)cc3CCc3cc(Br)cnc32)CC1 [Example 53],87 nM
2,N#CN/C(=N/c1ccncc1)N1CCC(=C2c3ccc(Cl)cc3CCc3cc(Br)cnc32)CC1 [Example 54],> 110 nM
3,N#CN=C(Nc1ccc2c(c1)OCCO2)N1CCC(=C2c3ccc(Cl)cc3CCc3cc(Br)cnc32)CC1 [Example 55],110 nM
4,CSC(=NC#N)N1CCC(=C2c3ccc(Cl)c(Br)c3CCc3cc(Br)cnc32)CC1 [Example 56],42 nM
5,CS(=O)(=O)c1ccc(N/C(=N\C#N)N2CCC(=C3c4ccc(Cl)cc4CCc4cc(Br)cnc43)CC2)cc1 [Example 59],87 nM
6,N#CN=C(NCc1ccncc1)N1CCC(=C2c3ccc(Cl)c(Br)c3CCc3cc(Br)cnc32)CC1 [Example 61],5 nM
7,COc1ccc2[nH]cc(CCNC(=NC#N)N3CCC(=C4c5ccc(Cl)cc5CCc5cc(Br)cnc54)CC3)c2c1 [Example 64],> 950 nM
8,CSC(=NC#N)N1CCC(=C2c3ccc(Cl)c(Br)c3CCc3cc(Br)cnc32)CC1 [Example 66],14 nM
9,N#CN=C(NCc1ccncc1)N1CCC(C2c3ccc(Cl)c(Br)c3CCc3cc(Br)cnc32)CC1 (stereo not drawn) [Example 67],1.7 nM
10,N#CN=C(NCCCN1CCCC1=O)N1CCC(C2c3ccc(Cl)c(Br)c3CCc3cc(Br)cnc32)CC1 (stereo not drawn) [Example 68],7 nM
11,N#CN=C(NCCOCCO)N1CCC(C2c3ccc(Cl)c(Br)c3CCc3cc(Br)cnc32)CC1 (stereo not drawn) [Example 69],3.7 nM
12,N#CN=C(NCc1ccc2c(c1)OCO2)N1CCC(=C2c3ccc(Cl)c(Br)c3CCc3cc(Br)cnc32)CC1 [Example 72],> 100 nM
13,CSC(=NC#N)N1CCC(=C2c3ccc(Cl)cc3CCc3cc(Br)cnc32)CC1 [Example 73],26 nM
14,N#CN=C(NCc1ccc(S(N)(=O)=O)cc1)N1CCC(=C2c3ccc(Cl)c(Br)c3CCc3cc(Br)cnc32)CC1 [Example 74],15 nM
15,N#CN=C(NCc1cccnc1)N1CCC(=C2c3ccc(Cl)c(Br)c3CCc3cc(Br)cnc32)CC1 [Example 75],4.8 nM
16,N#CN=C(NCC1CCNCC1)N1CCC(=C2c3ccc(Cl)c(Br)c3CCc3cc(Br)cnc32)CC1 [Example 76],4.7 nM
17,N#CN=C(NCC1CCN(C(N)=O)CC1)N1CCC(=C2c3ccc(Cl)c(Br)c3CCc3cc(Br)cnc32)CC1 [Example 77],4.4 nM
18,N#CN=C(NCc1ccncc1)N1CCC(=C2c3ccc(Cl)cc3CCc3cccnc32)CC1 [Example 78],64 nM
19,N#CN=C(Nc1ccc(N2CCOCC2)cc1)N1CCC(=C2c3ccc(Cl)c(Br)c3CCc3cc(Br)cnc32)CC1 [Example 80],38 nM
20,N#CN=C(NCc1ccc[n+]([O-])c1)N1CCC(=C2c3ccc(Cl)c(Br)c3CCc3cc(Br)cnc32)CC1 [Example 81],4.6 nM
21,N#CN=C(c1ccncc1)N1CCC(C2c3ncc(Br)cc3CCc3cc(Cl)cc(Br)c32)CC1 (stereo not drawn) [Example 83],> 33 nM
